We go through 1 compound from patent US20210259960A1, “FORMULATION CONTAINING EMRICASAN” (The Doshisha, priority 2018, published 2021).

Series [1] can be described thus: Solubility of emricasan with 2% surfactant at various pH, visually observed (Example 1). In kind it is physicochemical. The method, then:
28 mg, which is the amount for the target concentration, of emricasan powder (Chemscene) was accurately measured with an electronic balance (AUW220D, SHIMADZU) and transferred to a glass test tube. 100 μl of 99% ethanol was added thereto to dissolve the emricasan powder. The solution thereof was sufficiently stirred with a vortex mixer in order to completely dissolve the emricasan powder. The solution thereof was then added with each of polysorbate 80 (Tween 80, NIKKOL), polyoxyethylene hydrogenated castor oil (HCO-60, NIKKOL), and polyethylene glycol monostearate (MYS-40, NIKKOL), which are nonionic surfactants comprising a polyoxyethylene group, so that the final concentration was 2%, followed by sufficient stirring. Phosphate buffered saline (PBS) was added to this solution so that the total amount was 5 ml, and the solution was sufficiently stirred and solubility was visually observed.

The nature of series [2]: Solubility of emricasan with 0.5% of various surfactants at low pH, visually observed (Example 2). In kind it is physicochemical. Particulars: target 10 mmol/L; surfactant 0.5% (HCO-100, HCO-60, HCO-40, HCO-20, CO-35, MYS-40, poloxamer 407). The protocol: In this example, a target dissolution concentration of emricasan was set to be 10 mmol/L in the same manner as Example 1. 28 mg of emricasan was accurately measured with an electronic balance (AUW220D, SHIMADZU) and transferred to a glass test tube. 100 μl of 99% ethanol was added thereto to dissolve emricasan. The solution thereof was sufficiently stirred with a vortex mixer in order to completely dissolve emricasan. The solution thereof was then added with polyoxyethylene hydrogenated castor oil 100 (HCO-100, NIKKOL), polyoxyethylene hydrogenated castor oil (HCO-60, NIKKOL), polyoxyethylene hydrogenated castor oil 40 (HCO-40, NIKKOL), polyoxyethylene hydrogenated castor oil 20 (HCO-20, NIKKOL), polyoxyethylene castor oil (CO-35:, NIKKOL), polyethylene glycol monostearate 40 (MYS-40, NIKKOL), and polyoxyethylene polyoxypropylene glycol 407 (poloxamer 407, NIKKOL), which are nonionic surfactants comprising a polyoxyethylene group, so that the final concentration was 0.5%, followed by sufficient stirring. Phosphate buffered saline (PBS) was added to this solution so that the total amount was 5 ml, and the solution was sufficiently stirred and solubility was visually observed.

Series [3] can be described thus: Stability of emricasan in solution using HCO-60, HPLC (Example 3). In kind it is physicochemical. Particulars: 0.5% emricasan, 0.5% HCO-60. The method, then: Stability of when HCO-60 was used as a surfactant to dissolve emricasan to a final concentration of 0.5% was tested. 500 mg of emricasan was accurately measured with an electronic balance (AUW220D, SHIMADZU) and transferred to a glass test tube. 2 ml of 99% ethanol was added thereto to dissolve emricasan. The solution thereof was sufficiently stirred with a vortex mixer in order to completely dissolve emricasan. The solution thereof was then added with polyoxyethylene hydrogenated castor oil 60 (HCO-60, NIKKOL), which is a surfactant, so that the final concentration was 0.5%, followed by sufficient stirring. Ethanol was then distilled off by a nitrogen gas stream. In order to adjust osmotic pressure, concentrated glycerin was added to this solution so that the final concentration was 1%. Phosphate buffered saline (PBS) was adjusted to pH 8, and added so that the total amount was 100 ml. After the solution was sufficiently stirred, 20 ml was collected and filtered with a 0.22 μmGV filter (Merck Millipore). 5 ml of the first filtrate was discarded, and 15 ml of the subsequent filtrate was collected. […] In this case, the stability was evaluated over time by assuming the results of HPLC measurement immediately after preparation to be 100% and comparing said results with the results after 2 weeks and 4 weeks. […]

Series [4] is described as follows: Stability of emricasan in solution using Tween 80, HPLC (Example 4). Particulars: 0.5% emricasan, 0.5% Tween 80. In kind it is physicochemical. The method, then: Stability of when Tween 80 was used as a surfactant to dissolve emricasan to a final concentration of 0.5% was tested. 500 mg of emricasan was accurately measured with an electronic balance (AUW220D, SHIMADZU) and transferred to a glass test tube. 2 ml of 99% ethanol was added thereto to dissolve emricasan. The solution thereof was sufficiently stirred with a vortex mixer in order to completely dissolve emricasan. The solution thereof was then added with polysorbate 80 (Tween 80, NIKKOL), which is a surfactant, so that the final concentration was 0.5%, followed by sufficient stirring. Ethanol was then distilled off by a nitrogen gas stream. In order to adjust osmotic pressure, concentrated glycerin was added to this solution so that the final concentration was 1%. Phosphate buffered saline (PBS) was adjusted to pH 8, and added so that the total amount was 100 ml. After the solution was sufficiently stirred, 20 ml was collected and filtered with a 0.22 μmGV filter (Merck Millipore). 5 ml of the first filtrate was discarded, and 15 ml of the subsequent filtrate was collected. 5 ml of this filtrate was placed in each glass test tube for 4° C., 25° C., and 37° C., shaded by a parafilm and an aluminum foil, and preserved under each temperature condition. The stability of this sample was studied by a high performance liquid chromatography (HPLC, Shimadzu Corporation). […]

A short description of series [5]: Stability of emricasan in an acidic region using Tween 80, HPLC (Example 5). In kind it is physicochemical. The method, then:
Stability of when Tween 80 was used as a surfactant to dissolve emricasan to a final concentration of 0.1% was tested.
45 mg of emricasan was accurately measured with an electronic balance (AUW220D, SHIMADZU) and transferred to a glass test tube. 0.9 ml of 99% ethanol was added thereto to dissolve emricasan. The solution thereof was sufficiently stirred with a vortex mixer in order to completely dissolve emricasan. The solution thereof was then added with polysorbate 80 (Tween 80, NIKKOL), which is a surfactant, so that the final concentration was 0.5%, followed by sufficient stirring. Ethanol was then distilled off by a nitrogen gas stream. In order to adjust osmotic pressure, concentrated glycerin was added to this solution so that the final concentration was 1%. Phosphate buffered saline (PBS) was adjusted to pH 5.5, and added so that the total amount was 45 ml. After the solution was sufficiently stirred, 20 ml was collected and filtered with a 0.22 μmGV filter (Merck Millipore). 5 ml of the first filtrate was discarded, and 15 ml of the subsequent filtrate was collected. 5 ml of this filtrate was placed in each glass test tube for 4° C., 25° C., and 37° C., shaded by a parafilm and an aluminum foil, and preserved under each temperature condition. The stability of this sample was studied by a high performance liquid chromatography (HPLC, Shimadzu Corporation). HPLC conditions were as follows: acetonitrile containing 0.05% trifluoroacetic acid and water were used at the ratio of 60:40 as a mobile phase, the temperature of VR-ODS column (4.6×150 mm, Shimadzu Corporation) was set to be 40° C., the flow rate was set to be 1.0 ml/min, the detection wavelength was set to be 254 nm, the injection volume was set to be 10 μl, and the detection time was set to be 10 minutes. In this case, the stability was studied over time by assuming the results of HPLC measurement immediately after preparation to be 100% and comparing said results with the results after 2 weeks and 4 weeks. Further, the condition of pH 4.5 was prepared and studied in the same method as described above.

Series [6] can be described thus: Lyophilization test of emricasan ophthalmic solution, re-solubility by HPLC (Example 6). Particulars: water added. In kind it is physicochemical. The method, then:
7 mg of emricasan was accurately measured with an electronic balance (AUW220D, SHIMADZU) and transferred to a glass test tube. 140 μl of 99% ethanol was added thereto to dissolve emricasan. The solution thereof was sufficiently stirred with a vortex mixer in order to completely dissolve emricasan. The solution thereof was then added with polysorbate 80 (Tween 80, NIKKOL), which is a surfactant, so that the final concentration was 0.5%, followed by sufficient stirring. Ethanol was then distilled off by a nitrogen gas stream. D-mannitol (Wako Pure Chemical Industries, Ltd.) was dissolved into phosphate buffered saline (PBS) so that the final concentration was 4.5%, and the solution thereof was adjusted to pH 4.5 and added to the above solution so that the total amount was 7 ml. This solution was sufficiently stirred, and preserved in a −83° C. freezer for one day. After freezing, water was completely removed by a lyophilization machine (FDU-1200, TOKYO RIKAKIKAI CO, LTD) for 12 hours.
Water was then added to study the re-solubility. Further, after this sample was filtered with a 0.22 μmGV filter (Merck Millipore), the re-solubility of emricasan was measured by a high performance liquid chromatography (HPLC, Shimadzu Corporation). […]

Series [7] concerns immortalized cells in Fuchs' endothelial corneal dystrophy (iFECD). Particulars: in vitro; cited from earlier work.

In the case of `C[C@H](NC(=O)C(=O)Nc1ccccc1C(C)(C)C)C(=O)N[C@@H](CC(=O)O)C(=O)COc1c(F)c(F)cc(F)c1F` [emricasan], the “solubility (visually observed)” value is “a suspended state was maintained” in series [1] (HCO-60 2%, pH 5.0, target 10 mmol/L); “dissolution of all of the emricasan was observed” in series [1] (Tween 80, HCO-60 or MYS-40 2%, pH 7, target 10 mmol/L); “dissolution was not observed” in series [1] (no surfactant, pH 7.0 to 8.0, target 10 mmol/L); “slightly dissolved” in series [1] (with surfactant 2%, pH 5.0, target 10 mmol/L). Also, the “solubility in saline, phosphate buffer, purified water” value in series [1] (no surfactant, at a concentration for use in an eye drop) was “poorly soluble”. In addition, the “minimum pH value of a solvent in which dissolution was visually observed” value in series [1] (target 10 mmol/L, nonionic polyoxyethylene surfactant 2%) is 6.0. The “final pH at which dissolution was observed” value in series [2] is recorded as at least 6.5. Moreover, the stability in solution entry is recorded as “degradation of emricasan was observed” in series [3] (25° C. and 37° C.); “degradation of emricasan was observed” in series [4] (25° C. and 37° C.); “degradation of emricasan was observed” in series [5] (0.1% emricasan, 0.5% Tween 80, pH 4.5 and pH 5.5, 37° C.). Besides, the “emricasan which was not degraded (residual vs immediately after preparation)” value is “no less than 90%” in series [3] (pH 6 to 8, 4° C., 4 weeks) and “no less than 90%” in series [4] (pH 6 to 8, 4° C., 4 weeks). For the same compound, the “emricasan which was not degraded” value was “no less than 90%” in series [5] (0.1% emricasan, 0.5% Tween 80, pH 4.5, 25° C., 2 weeks); “no less than 90%” in series [5] (0.1% emricasan, 0.5% Tween 80, pH 4.5 and 5.5, 4° C., 4 weeks); “less than 90%” in series [5] (0.1% emricasan, 0.5% Tween 80, pH 5.5, 25° C., 2 weeks); “no less than 50%” in series [5] (0.1% emricasan, 0.5% Tween 80, pH 5.5, 25° C., 4 weeks). Besides, the “solubility at final concentration of 0.1%” value in series [5] (0.5% Tween 80, pH 4.5 and pH 5.5) was “dissolved”. Also, in series [5] (pH on the acidic side), the “amount of emricasan that dissolves” value was “at least 0.1 % by weight”. Moreover, the “amount of emricasan dissolved relative to before lyophilization” value in series [6] (lyophilized (0.5% Tween 80, 4.5% D-mannitol, pH 4.5), after 0.22 μm filtration) is “about 88%”. In addition, the “re-solubility after addition of water (appearance)” value in series [6] (lyophilized sample) is “immediately dissolved but was pale white”. The “concentration that exhibited pharmacological activity” value in series [7] is reported as 10 μmol/L.
